The test system of this experiment is TMD8-resistant cells. Put plainly: CellTiter-Glo luminescent cell viability assay, TMD8-resistant versus TMD8-WT cells. The class given is cell-based. Conditions: ABT-199 for 3 days.

Molecules are shown by their SMILES.

As for `CC1(C)CCC(CN2CCN(c3ccc(C(=O)NS(=O)(=O)c4ccc(NCC5CCOCC5)c([N+](=O)[O-])c4)c(Oc4cnc5[nH]ccc5c4)c3)CC2)=C(c2ccc(Cl)cc2)C1` [ABT-199], the “sensitivity to drug (effect on cell growth) compared to TMD8-WT cells” value is recorded as “more sensitive”.

The values above are taken from patent US20160032404A1, “BIOMARKERS FOR PREDICTING RESPONSE OF DLBCL TO TREATMENT WITH A BTK INHIBITOR” (Pharmacyclics LLC, priority 2014, published 2016).
